Laboratory results from patent publication US20230167103A1 (Bayer Aktiengesellschaft, priority 2020, published 2023).

Biological target: T1, human DGKζ (Homo sapiens, UniProt Q13574)
T1 construct: made in house; host or cells: Sf9 insect cells, baculovirus
Test: Human DGKζ kinase activity inhibition assay (ADP-Glo)
Type: biochemical
Conditions: example compounds; recombinant full-length human DGKζ, 1,2-dioleoyl-sn-glycerol 7 μM, ATP 55 μM, 20 min at 22° C.; read-out: IC50 values of examples in in vitro human DGKζ kinase activity inhibition assays
Description: Human diacylglycerol kinase zeta (DGKζ) inhibitory activity of compounds of the present invention was quantified employing the human DGKζ kinase activity assay as described in the following paragraphs. In essence, the enzyme activity was measured by quantification of the adenosine-di-phosphate (ADP) generated as a co-product of the enzyme reaction via the “ADP-Glo™ Kinase Assay” kit from the company Promega. This detection system works as follows: In a first step the adenosine-tri-phosphate (ATP) not consumed in the kinase reaction is quantitatively converted to cyclic adenosine-mono-phosphate (cAMP) employing an adenylate cyclase (“ADP-Glo-reagent”), then the adenylate cyclase is stopped and the ADP generated in the kinase reaction is converted to ATP, which subsequently generates in a luciferase-based reaction a glow-luminescence signal (“Kinase Detection Reagent”).
C-terminally FLAG-tagged, recombinant full-length human DGKζ (inhouse expressed in baculovirus infected insect cells, purified using anti-Flag pulldown and size exclusion chromatography) was used as enzyme. As an alternative, commercially available enzyme by Carnabio can be used. As substrate for the kinase, 1,2-dioleoyl-sn-glycerol, reconstituted in octyl-β-D-glucopyranoside micelles, was used. […] Subsequently, 22.55 volumes of a 510 mM solution of octyl-β-D-glucopyranoside (Sigma-Aldrich, Cat. #O8001-10G) in 50 mM MOPS buffer (pH 7.4) were added, and the mixture was sonicated in an ultrasonic bath for 20 s. Then 35 volumes of 50 mM MOPS buffer (pH 7.4) were added to yield a solution of 0.28 mM 1,2 dioleoyl-sn-glycerol and 200 mM octyl-β-D-glucopyranoside, which was aliquoted, flash-frozen in liquid nitrogen, and stored at −20° C. until use.
For the assay 50 nl of a 100-fold concentrated solution of the test compound in dimethyl sulfoxide (DMSO, Sigma) was pipetted into either a white 1536-well or a white low-volume 384-well microtiter plate (both Greiner Bio-One, Frickenhausen, Germany). […] The concentration of DGKζ was adjusted depending of the activity of the enzyme lot and was chosen appropriate to have the assay in the linear range, a typical concentration is about 0.1 nM. The reaction was stopped by the addition of 2.5 μL of “ADP-Glo-reagent” (1 to 1.5 diluted with water) and the resulting mixture was incubated at 22° C. for 1 h to convert the ATP not consumed in the kinase reaction completely to cAMP. Subsequently 2.5 μl of the “kinase detection reagent” (1.2 fold more concentrated than recommended by the producer) were added, the resulting mixture was incubated at 22° C. for 1 h and then the luminescence measured with a suitable measurement instrument (e.g. Viewlux™ from Perkin-Elmer). The amount of emitted light was taken as a measure for the amount of ADP generated and thereby for the activity of the DGKζ.
The data were normalised (enzyme reaction without inhibitor=0% inhibition, all other assay components but no enzyme=100% inhibition).

T1 sequence (Q13574 with tags, fused parts or gaps): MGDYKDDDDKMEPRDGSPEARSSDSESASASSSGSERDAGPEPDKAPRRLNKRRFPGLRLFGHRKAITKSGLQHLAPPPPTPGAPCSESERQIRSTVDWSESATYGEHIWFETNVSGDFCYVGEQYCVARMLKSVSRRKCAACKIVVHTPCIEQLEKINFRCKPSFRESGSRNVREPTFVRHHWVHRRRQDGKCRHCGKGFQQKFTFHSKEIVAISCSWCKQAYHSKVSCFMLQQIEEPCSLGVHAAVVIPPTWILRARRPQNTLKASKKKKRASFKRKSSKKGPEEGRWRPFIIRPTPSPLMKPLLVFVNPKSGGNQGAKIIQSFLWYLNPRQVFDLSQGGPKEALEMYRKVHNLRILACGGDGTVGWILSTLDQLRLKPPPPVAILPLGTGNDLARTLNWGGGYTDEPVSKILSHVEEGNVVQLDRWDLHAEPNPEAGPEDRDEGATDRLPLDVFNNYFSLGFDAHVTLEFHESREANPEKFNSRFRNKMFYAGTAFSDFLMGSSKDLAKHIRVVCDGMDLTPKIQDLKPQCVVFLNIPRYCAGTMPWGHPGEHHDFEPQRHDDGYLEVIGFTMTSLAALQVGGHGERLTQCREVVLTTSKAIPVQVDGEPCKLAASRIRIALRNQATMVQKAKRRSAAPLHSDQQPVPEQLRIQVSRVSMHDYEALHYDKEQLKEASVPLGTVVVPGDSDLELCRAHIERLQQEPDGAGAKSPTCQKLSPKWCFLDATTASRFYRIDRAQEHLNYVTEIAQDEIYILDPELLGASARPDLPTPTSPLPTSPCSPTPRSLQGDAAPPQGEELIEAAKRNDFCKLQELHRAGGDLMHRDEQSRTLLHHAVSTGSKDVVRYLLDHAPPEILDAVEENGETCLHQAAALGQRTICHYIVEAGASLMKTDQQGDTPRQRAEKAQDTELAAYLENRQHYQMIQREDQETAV

Row | SMILES | IC50 [nM]
1 | CC(C(N)=O)N(c1ccc(F)cc1)c1nc(N)c(C(=O)c2cc(C(=O)NC3(C4CC4)CC3)no2)s1 (racemic) [Example 24, rac-5-[4-amino-2-(N-(2-amino-1-methyl-2-oxo-ethyl)-4-fluoro-anilino)thiazole-5-carbonyl]-N-(1-cyclopropylcyclopropyl)isoxazole-3-carboxamide] | 120
2 | CC(C(N)=O)N(c1ccc(F)cc1)c1nc(N)c(C(=O)c2cc(C(=O)NC3CCCC3)no2)s1 (racemic) [Example 25, rac-5-[4-amino-2-(N-(2-amino-1-methyl-2-oxo-ethyl)-4-fluoro-anilino)thiazole-5-carbonyl]-N-cyclopentyl-isoxazole-3-carboxamide] | 134
3 | CC(C(N)=O)N(c1ccc(F)cc1)c1nc(N)c(C(=O)c2cc(C(=O)NCCOC(C)(C)C)no2)s1 (racemic) [Example 26, rac-5-[4-amino-2-(N-(2-amino-1-methyl-2-oxo-ethyl)-4-fluoro-anilino)thiazole-5-carbonyl]-N-(2-tert-butoxyethyl)isoxazole-3-carboxamide] | 138
4 | CC(C(N)=O)N(c1ccc(F)cc1)c1nc(N)c(C(=O)c2cc(C(=O)N3CCCCC3)no2)s1 (racemic) [Example 27, rac-2-(N-[4-amino-5-[3-(piperidine-1-carbonyl)isoxazole-5-carbonyl]thiazol-2-yl]-4-fluoro-anilino)propanamide] | 148
5 | CC(C(N)=O)N(c1ccc(F)cc1)c1nc(N)c(C(=O)c2cc(C(=O)Nc3ccccn3)no2)s1 (racemic) [Example 28, rac-5-[4-amino-2-(N-(2-amino-1-methyl-2-oxo-ethyl)-4-fluoro-anilino)thiazole-5-carbonyl]-N-(2-pyridyl)isoxazole-3-carboxamide] | 90
6 | CC(C(N)=O)N(c1ccc(F)cc1)c1nc(N)c(C(=O)c2cc(C(=O)NCCOC(F)(F)F)no2)s1 (racemic) [Example 29, rac-5-[4-amino-2-(N-(2-amino-1-methyl-2-oxo-ethyl)-4-fluoro-anilino)thiazole-5-carbonyl]-N-[2-(trifluoromethoxy)ethyl]isoxazole-3-carboxamide] | 97
7 | CC(C(N)=O)N(c1ccc(F)cc1)c1nc(N)c(C(=O)c2cc(C(=O)NC3(C)CCC3)no2)s1 (racemic) [Example 30, rac-5-[4-amino-2-(N-(2-amino-1-methyl-2-oxo-ethyl)-4-fluoro-anilino)thiazole-5-carbonyl]-N-(1-methylcyclobutyl)isoxazole-3-carboxamide] | 88
8 | CC(C(N)=O)N(c1ccc(F)cc1)c1nc(N)c(C(=O)c2cc(C(=O)NC34CC(C3)C4)no2)s1 (racemic) [Example 31, rac-5-[4-amino-2-(N-(2-amino-1-methyl-2-oxo-ethyl)-4-fluoro-anilino)thiazole-5-carbonyl]-N-(1-bicyclo[1.1.1]pentanyl)isoxazole-3-carboxamide] | 193
9 | CC(C(N)=O)N(c1ccc(F)cc1)c1nc(N)c(C(=O)c2cc(C(=O)NC3CC(F)(F)C3)no2)s1 (racemic) [Example 32, rac-5-[4-amino-2-(N-(2-amino-1-methyl-2-oxo-ethyl)-4-fluoro-anilino)thiazole-5-carbonyl]-N-(3,3-difluorocyclobutyl)isoxazole-3-carboxamide] | 93
10 | CC(C(N)=O)N(c1ccc(F)cc1)c1nc(N)c(C(=O)c2cc(C(=O)NC3CCC(F)(F)C3)no2)s1 (racemic) [Example 33, 5-[4-amino-2-(N-(2-amino-1-methyl-2-oxo-ethyl)-4-fluoro-anilino)thiazole-5-carbonyl]-N-(3,3-difluorocyclopentyl)isoxazole-3-carboxamide] | 48
11 | CC(C)NC(=O)c1cc(C(=O)c2sc(N(c3ccc(F)cc3)C(C)C(N)=O)nc2N)on1 (racemic) [Example 34, rac-5-[4-amino-2-(N-(2-amino-1-methyl-2-oxo-ethyl)-4-fluoro-anilino)thiazole-5-carbonyl]-N-isopropyl-isoxazole-3-carboxamide] | 223
12 | CC(C(N)=O)N(c1ccc(F)cc1)c1nc(N)c(C(=O)c2cc(C(=O)NCC#N)no2)s1 (racemic) [Example 35, rac-5-[4-amino-2-(N-(2-amino-1-methyl-2-oxo-ethyl)-4-fluoro-anilino)thiazole-5-carbonyl]-N-(cyanomethyl)isoxazole-3-carboxamide] | 566
13 | COCC(C)NC(=O)c1cc(C(=O)c2sc(N(c3ccc(F)cc3)C(C)C(N)=O)nc2N)on1 (racemic) [Example 36, 5-[4-amino-2-(N-(2-amino-1-methyl-2-oxo-ethyl)-4-fluoro-anilino)thiazole-5-carbonyl]-N-(2-methoxy-1-methyl-ethyl)isoxazole-3-carboxamide] | 446
14 | CC(C(N)=O)N(c1ccc(F)cc1)c1nc(N)c(C(=O)c2cc(C(=O)NC3CCCC3(C)C)no2)s1 (racemic) [Example 37, 5-[4-amino-2-(N-(2-amino-1-methyl-2-oxo-ethyl)-4-fluoro-anilino)thiazole-5-carbonyl]-N-(2,2-dimethylcyclopentyl)isoxazole-3-carboxamide] | 43
15 | CC(C(N)=O)N(c1ccc(F)cc1)c1nc(N)c(C(=O)c2cc(C(=O)N[C@H]3C[C@@H](F)C3)no2)s1 (mixture of isomers) [Example 38, 5-[4-amino-2-(N-(2-amino-1-methyl-2-oxo-ethyl)-4-fluoro-anilino)thiazole-5-carbonyl]-N-(cis-3-fluorocyclobutyl)isoxazole-3-carboxamide] | 344
16 | CC(C(N)=O)N(c1ccc(F)cc1)c1nc(N)c(C(=O)c2cc(C(=O)NC3(C)CCCC3)no2)s1 (racemic) [Example 39, rac-5-[4-amino-2-(N-(2-amino-1-methyl-2-oxo-ethyl)-4-fluoro-anilino)thiazole-5-carbonyl]-N-(1-methylcyclopentyl)isoxazole-3-carboxamide] | 53
17 | CC(C(N)=O)N(c1ccc(F)cc1)c1nc(N)c(C(=O)c2cc(C(=O)NC(CF)CF)no2)s1 (racemic) [Example 40, rac-5-[4-amino-2-(N-(2-amino-1-methyl-2-oxo-ethyl)-4-fluoro-anilino)thiazole-5-carbonyl]-N-[2-fluoro-1-(fluoromethyl)ethyl]isoxazole-3-carboxamide] | 204
18 | CC(NC(=O)c1cc(C(=O)c2sc(N(c3ccc(F)cc3)C(C)C(N)=O)nc2N)on1)C(F)F (racemic) [Example 41, 5-[4-amino-2-(N-(2-amino-1-methyl-2-oxo-ethyl)-4-fluoro-anilino)thiazole-5-carbonyl]-N-(2,2-difluoro-1-methyl-ethyl)isoxazole-3-carboxamide] | 134
19 | CC(C(N)=O)N(c1ccc(F)cc1)c1nc(N)c(C(=O)c2cc(C(=O)N[C@H]3C[C@H](F)C3)no2)s1 (mixture of isomers) [Example 42, 5-[4-amino-2-(N-(2-amino-1-methyl-2-oxo-ethyl)-4-fluoro-anilino)thiazole-5-carbonyl]-N-(trans-3-fluorocyclobutyl)isoxazole-3-carboxamide] | 146
20 | CC(C(N)=O)N(c1ccc(F)cc1)c1nc(N)c(C(=O)c2cc(C(=O)NC3CCC(C)(C)C3)no2)s1 (racemic) [Example 43, 5-[4-amino-2-(N-(2-amino-1-methyl-2-oxo-ethyl)-4-fluoro-anilino)thiazole-5-carbonyl]-N-(3,3-dimethylcyclopentyl)isoxazole-3-carboxamide] | 94
21 | CC(C(N)=O)N(c1ccc(F)c(F)c1)c1nc(N)c(C(=O)c2cc(C(=O)NC3(C)CCC3)no2)s1 (racemic) [Example 44, rac-5-[4-amino-2-(N-(2-amino-1-methyl-2-oxo-ethyl)-3,4-difluoro-anilino)thiazole-5-carbonyl]-N-(1-methylcyclobutyl)isoxazole-3-carboxamide] | 59
22 | CC(C(N)=O)N(c1ccc(F)c(F)c1)c1nc(N)c(C(=O)c2cc(C(=O)NC3CC(F)(F)C3)no2)s1 (racemic) [Example 45, rac-5-[4-amino-2-(N-(2-amino-1-methyl-2-oxo-ethyl)-3,4-difluoro-anilino)thiazole-5-carbonyl]-N-(3,3-difluorocyclobutyl)isoxazole-3-carboxamide] | 53
